# Where two headings read alike, the source gives them in different places.
# Key:
# [1] = test system: OR6 cells harboring full-length genotype 1b HCV replicon ORN/C-5B/KE (HCV RNA replication); test: microbe, parasite or virus in culture; type: cell-based, Hepatitis C virus (strain HCV—O; conditions: 48 hours; for antiviral activity (in words): OR6 full-length replicon
# Text: (§1) HCV Replicon System-Secondary Assays. For validation, OR6 cells stably harboring the full-length genotype 1 replicon, ORN/C-5B/KE9 were used to examine compound activity in a more authentic viral polyprotein context. This replicon was derived from the 1B-2 strain (strain HCV—O, genotype 1b), in which the Renilla luciferase gene is introduced as a fusion protein with neomycin to facilitate the monitoring of HCV replication. This construct contains a tissue culture adaptive mutation in the NS3 region. Cells were cultured in an identical manner to the Huh7/Rep-Feo cells.
# (§2) Secondary Assays-Hit Validation. Several hits from primary HTS, as well as functionally related compounds, were purchased from Sigma (St. Louis, Mo.), Calbiochem (San Diego, Calif.), and Microsource (Gaylordsville, Conn.). […] Ten mM of stock solutions of the individual compounds to be tested was prepared in the appropriate solvent (DMSO, ethanol, or H2O, according to the manufacturer's information) and stored at −20° C. Cells were seeded into 96-well plates at a density of 2000 cells/well in 100 μL of medium. The cells were incubated for 24 hours at 37° C. to obtain the optimal level of adherence. Solutions of candidate hit compounds were added to wells to achieve final concentrations of 0.1, 1, 10, 50, and 100 μM. The final concentration of DMSO or ethanol in every well was 1% or less by volume. Mock solutions were used as a negative control. PEG-IFN and ribavirin were used as positive controls at various concentrations, alone and in combination. The plates were then incubated at 37° C. with 5% CO2 for 48 hours before they were analyzed. Luminescent signal was generated using the Renilla luciferase assay kit (Promega) according to the manufacturer's instructions. Signal was then detected using a LumiCount (Packard BioScience Company) luminometer. Cell viability was assessed using CellTiter-Glo (Promega), following the manufacturer's instructions. All experiments were performed in triplicate.
# (§3) Secondary Assays-Data Analysis. Values were presented as a percentage of mock treated control, which was arbitrarily set at 100%. Data were expressed as the mean (±) SD. […] Synergy calculations were performed using CalcuSyn (Biosoft; Cambridge, England).
# as §1, with “System—Secondary Assays:” for “System-Secondary Assays.”, “For replicon” for “For”, “ORN/C-5B/KE” for “ORN/C-5B/KE9”, “(Burke J. Am. Chem. Soc. (2004) 126:14095-14104).” for “to examine compound activity in a more authentic viral polyprotein context.”, “the Neomycin resistance cassette” for “neomycin”
# (§4) Secondary Assays—Hit Validation: 10 mM of stock solutions of the individual compounds to be tested were prepared in DMSO and stored at −20° C. Cells were seeded into 96-well plates at a density of 2,000 cells/well in 100 μl of medium. The cells were incubated for 24 hours at 37° C. to obtain the optimal level of adherence. Solutions of candidate hit compounds were added to wells to achieve varying final concentrations between 0.01 and 100 μM. The final concentration of DMSO or ethanol in every well was 1% or less by volume. Mock solutions were used as a negative control. Peginterferon-alfa-2b (PEG-Intron; Schering Corp.; Kenilworth, N.J.) and ribavirin (Sigma; St. Louis, Mo.) were used as positive controls at various concentrations, alone and in combination. The plates were then incubated at 37° C. with 5% CO2 for 48 hours before they were analyzed. Luminescent signal was generated using the Renilla luciferase assay kit (Promega; Madison, Wis.) according to the manufacturer's instructions. Signal was then detected using a LumiCount™ (Packard BioScience Company; Downers Grove, Ill.) luminometer.
# OR6 cells = test: Secondary assay cell viability (CellTiter-Glo); conditions: 48 hours
# Protocol: as §2, §3
# as §4, with “luminometer. Cell viability was assessed using CellTiter-Glo (Promega; Madison, Wis.), following the manufacturer's instructions. All experiments were performed in triplicate. Values were presented as a percentage of mock treated control, which was arbitrarily set at 100%. Data were expressed as the mean±SD.” for “luminometer.”
# Secondary Assays—Data Analysis: Values were presented as a percentage of mock treated control, which was arbitrarily set at 100%. Data were expressed as the mean±SD.
# [2] = test system: Huh7/Rep-Feo HCV replicon; test: Optimization of Huh7/Rep-Feo cells for 96-/384-well plates with PEG-IFN as positive control; type: cell-based, Hepatitis C virus (strain HCV—N, genotype 1b); conditions: 96-well plates; measurements at 24, 48, 72 hours
# Protocol: Optimization of Huh-7/Rep-Feo Cells for the 384-Well Plate Format. The Huh7/Rep-Feo cells were first optimized for the 96-well plate format (FIG. 9). […] Cells were seeded at densities of 5000 and 10,000 cells/well in 100_L of medium in 96-well plates. The cells were allowed to attach overnight (approximately 24 hours) before addition of PEG-IFN at various concentrations (day 0). The plates were then incubated further, and measurements were taken at 24, 48, and 72 hours. At each time point, the plates were equilibrated at room temperature, an equal volume of Bright-Glo reagent (Promega, Madison, Wis.) was added, and the plates were read in a LumiCount (Packard BioScience Company, Downers Grove, Ill.) luminometer. […] Results were expressed as the mean of three replicate wells. […]
# Optimization of Huh-7/Rep-Feo cells for the 384-well plate format: Cells were propagated in Dulbecco's Modified Eagle's medium (DMEM) containing 10% fetal bovine serum (FBS) supplemented with 1% penicillin-streptomycin, and 500 μg of Geneticin (Invitrogen Corp., Carlsbad, Calif.)/ml. […] At each time point, the plates were equilibrated at room temperature, an equal volume of Bright-Glo reagent (Promega, Madison, Wis.) was added, and the plates were read in a LumiCount™ (Packard BioScience Company, Downers Grove, Ill.) luminometer. […] Results were expressed as the mean of three replicate wells. […]
# [3] = test system: Huh7/Rep-Feo HCV replicon (HCV RNA replication); type: cell-based, Hepatitis C virus (strain HCV—N, genotype 1b)
# Text: Development of the Huh7/Rep-Feo replicon assay. […] This replicon was derived from a chimpanzee infectious clone (strain HCV—N, genotype 1b). In this replicon, the structural genes have been replaced by a reporter gene. The chimeric reporter gene Feo encodes the firefly luciferase protein fused in-frame with neomycin phosphotransferase. This Huh7/Rep-Feo cell supports high levels of autonomous HCV RNA replication because it was derived from the HCV—N strain, which carries an adaptive mutation in NSSA that confers highlevel replication in tissue culture. Furthermore, the level of luciferase correlates well with levels of HCV RNA production, so that luciferase can be used as a reliable surrogate marker for HCV replication. The use of luciferase as a reporter permits quantitative and highthroughput detection of HCV replication levels. The specific use of firefly luciferase makes this replicon especially well-suited for automation, because the luciferase reagent can be added directly to the cell culture system prior to signal detection without the need for cell lysis, washing, or aspiration.
# HCV Replicon System-Primary Screening. […] Briefly, this replicon harbors a subgenomic HCV genotype 1b sequence, fused to firefly luciferase, stably replicating under neomycin selection. Cells were propagated in Dulbecco's Modified Eagle's medium (DMEM) containing 10% fetal bovine serum (FBS) supplemented with 1% penicillin-streptomycin, and 500 μg of Geneticin (Invitrogen Corp., Carlsbad, Calif.)/mL. Cells were cultured in a 37° C., 5% CO2-humidified incubator for all experiments. To decrease day-today variability in the assay, a large homogenous population of subconfluent cells was passaged so that a similar lot of cells could be used throughout the HTS assay.
# Primary Screening-HTS. Information about the library of known bioactive compounds that was screened and the general automated HTS protocol is available at http://www.broad.harvard.edu/chembio/index.html (see FIG. 10 for list of primary HTS with known bioactives library). Based on the results of optimization experiments in the 384-well plate format, the general HTS protocol was adapted as follows. Unless otherwise indicated, cells were incubated at all times in a humidified environment with 5% CO2 at 37° C. The assay was initiated by plating 30 μL of medium containing 2000 cells/well into white 384-well opaque-bottom plates (Nunc, Rochester, N.Y.) using an automated plate filler (Bio-Tek uFiller; Winsooki, Vt.) and allowing the cells to adhere for 24 hours. One hundred nL of compound stock solutions in DMSO was transferred from stock plates into the 384-well assay plates using an automated pin-based compound transfer robot (CyBio CyBi-Well vario; Woburn, Mass.). The final compound concentration in each well was estimated to be approximately 10-50 μM, with most compounds at 33 μM. The wells contained 0.33% DMSO by volume. The cells were then incubated for another 48 hours. The luminescent signal from each plate was detected using an automated plate reader (Perkin-Elmer Envision 1; Wellesley, Mass.). This screen was performed in duplicate. For negative controls, entire DMSO-treated control plates were employed, in addition to DMSO-only control wells that were incorporated into each compound assay plate. The cells were assayed for luciferase activity using the Bright-Glo Luciferase assay system (Promega), following the manufacturer's instructions. As a counter-screen, cell viability was assessed using the CellTiterGlo Luminescent cell viability assay (Promega) following the manufacturer's instructions.
# Computational Data Analysis-Primary Screening. For each replicate, a mock-treatment distribution based on the total population of mock (DMSO) controls in that replicate was built (FIG. 11).
Compound,antiviral activity (in words) [1],cytotoxicity (in words) (OR6 cells),also measured
O=C1[C@@]2(CO)C=C(I)C(CC2c2ccccc2)[C@@]12CO2 (some centres unmarked) [SM_A14B5],–,–,"IC50 ([1]; Hepatitis C virus, OR6, 48 h, read-out: IC50 (HCV RNA replication, luciferase), OR6 full-length genotype 1b replicon): ~3.5 µM; concentrations at which cytotoxic effects were exhibited (OR6 cells): above 30 μM"
"CC[C@H](C)C(=O)O[C@H]1CCC=C2C=C[C@H](C)[C@H](CC[C@@H]3C[C@@H](O)CC(=O)O3)[C@H]21 [Mevastatin, mevastatin]",weakly inhibitory,not cytotoxic,–
Peginterferon-alfa-2b [PEG-IFN],–,–,antiviral activity over time (in words) [2]: progressively increased over time
Clc1cccc(Nc2nnc(-c3ccccc3)c3ccccc23)c1 [MY-5445],decreased the luciferase signal in a dose-related manner,significant cytotoxicity,"primary screen hit result (in words) ([3]; known bioactives library, approximately 10-50 μM, most at 33 μM): Antiviral"
C[S+]([O-])c1ccc(-c2nc(-c3ccncc3)c(-c3ccc(F)cc3)[nH]2)cc1 (centres unmarked) [SB 203580],antiviral activity at a concentration of 10 μM,cytotoxicity at higher concentrations,primary screen hit result (in words) [3]: Antiviral

# Reference: patent US20120094939A1, “ANTI-VIRAL COMPOUNDS, COMPOSITIONS AND METHODS” (priority 2007, published 2012)
